Data: patent US20020119979A1, “Acyclic compounds and methods for treating multidrug resistance” (priority 2000, published 2002)

Tested on: NIH-MDR1-G185 cells
Assay: Fluorescent substrate (BODIPY-FL Taxol) accumulation assay
Assay type: cell-based
Conditions: BODIPY-FL taxol 500 nM, MDR modulator 10 micromolar, 40 min at 37° C.; fluorescence in NIH-MDR1-G185 cells in presence / absence of modulator
Description: Fluorescent Substrate Accumulation Assay
NIH-MDR1-GI 85 cells (obtained from M. Gottesman, NI1H) were harvested and resuspended in RPMI-1640 containing L-glutamine, 10% Cosmic Calf Serum and penicillin-streptomycin. Cell suspension aliquots of 175 microliters (1×10^5 cells) were added to individual wells of a 96 well microtiter plate and preincubated for 15 min at 37° C. with 20 microliters MDR modulator diluted in cell culture media to give a final concentration of 10 micromolar. Control wells received no modulating agent. BODIPY-FL Taxol (Molecular Probes, Eugene, Oreg.) was added to each well in 10 microliter aliquots to give a final concentration of 500 nM and cells were incubated for 40 min at 37° C. Cells were centrifuged at 100× g for 5 min at 4° C. and the cell pellet washed with 200 microliters cold PBS to remove fluorescent medium from wells. Cells were centrifuged once more, media removed, and cells resuspended in 200 microliters cold PBS. Fluorescence accumulation was measured in a fluorescence plate reader fitted with an excitation filter of 485 nm and an emission filter of 538 nm. BODIPY-FL taxol accumulation in the cells was calculated as follows:
Accumulation Index=(fluorescence in NIH-MDR1-G185 cells in the presence of modulator)/(fluorescence in NIH-MDR1-G185 cells in absence of modulator) […]

**Q.** Which “Accumulation Index” value does the source give for `O=C(CCCNC[C@@H](O)COc1cccc2ncccc12)NC(CCCc1ccccc1)CCCc1ccccc1` [Example 25, N-{1-[2-(R)-Hydroxy-3-(quinolin-5-yloxy)-propyl]}-4-aminobutyric acid [4-phenyl-1-(3-phenyl-propyl)-butyl]-amide] here?
**A.** 10
